Experimental data taken from patent US9085549B2, “Compounds for the treatment of neurodegenerative diseases” (ProteoTech Inc., priority 2011, dated 2015).
Read-outs that look alike come from different tables or passages of the source. Blank lines part the entries; values can stand above or below the compound they belong to.

Legend:
[1] = test system: BE-M17 human neuroblastoma cells stably transfected with A53T-mutant human α-synuclein; assay: Thioflavin S staining of rotenone-induced α-synuclein aggregates in cells; type: cell-based; conditions: for inhibition at 0.5 µM / inhibition at 2 µM / inhibition at 1 µM / inhibition at 5 µM: Homo sapiens, Neuroblastoma cell, read-out: Efficacy % Inhibition
α-synuclein fibrils [2] = molecular target: T1, α-synuclein fibrils (Homo sapiens (Human), UniProt P37840); assay: Thioflavin T fluorometry: disruption/disaggregation of pre-formed α-synuclein fibrils; type: biochemical; conditions: for Emax: 48 h, read-out: Max % Decrease
Experimental: The biological activity of the compounds provided herein as disruptors/inhibitors of Parkinson's disease α-synuclein fibrils was assessed by determining the efficacy of the compounds to cause a disassembly/disruption of pre-formed Parkinson's disease α-synuclein fibrils. In one study, Thioflavin T fluorometry was used to determine the effects of the compounds, and […]).
In one study, Thioflavin T fluorometry was used to determine the effects of the compounds on α-synuclein fibrils. In addition to test compounds, this experiment included a positive control compound and a negative control compound for reference.
For each compound, the % inhibition of Thioflavin T fluorescence (i.e. the decrease compared to control reactions containing α-synuclein alone) was plotted against the log of the concentration of the test compound (expressed as mole ratio relative to α-synuclein).

α-synuclein fibrils [3] = molecular target: T1, α-synuclein fibrils; assay: biochemical; conditions: 48 h, read-out: Max % Decrease
α-synuclein = α-synuclein (Homo sapiens (Human), UniProt P37840); assay: Circular dichroism spectroscopy: inhibition of α-synuclein β-sheet formation; type: biochemical; conditions: read-out: Max % Inhibition
Experimental: For this purpose, α-synuclein was obtained from rPeptide as a lyophilized salt in 1 mg aliquots. Buffer components and other solvents were obtained from Sigma as A.C.S. Reagent grade or higher. […] After 24 hours, reactions were diluted 20-fold in PBS and CD spectra for each reaction were acquired on a Jasco J-810 spectropolarimeter using a 0.1 cm path length cell. All spectra were recorded with a step size of 0.1 nm, a bandwidth of 1 nm, and an α-synuclein concentration of 0.05 mg/ml. The spectra were trimmed at the shortest wavelength that still provided a dynode voltage less than 600V. The trimmed spectra were then subjected to a data processing routine beginning with noise reduction by Fourier transform followed by subtraction of a blank spectrum (vehicle only without α-synuclein). These blank corrected spectra were then zeroed at 260 nm and the units converted from millidegrees to specific ellipticity.
These percent β-sheet values were then used to provide the respective relative % inhibition of β-sheet induced by the compounds at given molar ratio of test compound:α-synuclein.

TauRD = TauRD (Homo sapiens (Human), UniProt P10636); assay: Circular dichroism spectroscopy: tau protein β-sheet formation
TauRD, sequence (P10636 561-689): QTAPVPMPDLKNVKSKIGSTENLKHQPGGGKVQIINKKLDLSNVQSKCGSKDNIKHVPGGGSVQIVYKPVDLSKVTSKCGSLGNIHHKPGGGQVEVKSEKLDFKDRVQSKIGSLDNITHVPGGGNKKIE
Experimental: CD spectroscopy was also performed to determine each compound's potency in inhibiting β-sheet secondary structure in TauRD under aggregation-prone conditions. The CD spectroscopy and Thio S assays were typically analyzed in parallel from the same sample preparation in order to correlate the results from two independent assays. CD spectra were taken from the samples containing +/− TauRD with increasing concentrations of compounds, and collected at 25° C. on a JASCO Model J-810 Spectropolarimeter. […] Since CD spectra reflect a total population of secondary structures (including random coil, β-sheet, and various intermediate conformers) of TauRD proteins under a given condition, the CD scores were established based on (1) the CD spectra derived from TauRD mixtures with different ratios of random coil/β-sheet; (2) time-dependent conformational changes of TauRD.

[4] = molecular target: human TauRD (Q244-E372 of Tau441) (Homo sapiens (Human), UniProt P10636); assay: Thioflavin S fluorometry: inhibition of tau protein fibril formation; type: biochemical; conditions: for IC50: read-out: ThioS (IC50)
human TauRD (Q244-E372 of Tau441), sequence (P10636 561-689): as above
Experimental: Methods Mol Biol, 2005. 299: p. 35-51]. […] (with shaking at 800-1000 rpm for day).
The Thio S fluorometry assay as a primary screening method to identify tau protein aggregation inhibitors from our small molecule library. Aggregated tau fibrils were prepared in the presence of equimolar ratios of TauRD and heparin (10 μM each) in 20 mM Na-phosphate buffer, pH7.4. The reaction mixture was incubated at 37° C. with shaking (800-1000 rpm) for 22-24 hr (or for 3 days). In the Thio S inhibition assays, test compounds at 0, 0.1, 1, 10 and 100 μM were added at time 0 into the reaction containing TauRD and heparin. The same reaction mixture (+/− increasing concentrations of compounds) but without TauRD were also set up in parallel to serve as background controls. For all test compounds background fluorescence readings were very low, usually <5% of those of the TauRD-containing wells. For each compound, the IC50 was calculated using Prism version 5 software (GraphPad Software) by nonlinear regression [(Log [inhibitor] vs. normalized response; variable slope)]. […] The Thio S screening results are summarized in Table 7 (in which the reactions were incubated for 22 hours).

α-synuclein fibrils [5] = molecular target: T1, α-synuclein fibrils
[6] = test system: A53T α-synuclein-expressing BE-M17 cells; assay: XTT assay: rotenone-induced cell death; type: cell-based, human
[7] = rotenone 0.5 μM, compound 0.5 μM
[8] = Thioflavin T fluorescence, 2-day incubation
[9] = inhibition of β-sheet formation, 24 hours
[10] = Homo sapiens, read-out: Max % Inhibition
[11] = TauRD and heparin 10 μM each, incubated for 22 hours
[12] = Homo sapiens; read-out: Max % Inhibition
[13] = Homo sapiens, read-out: % inhibition of cell death

SMILES: Oc1ccc(-c2nnc(-c3cc(O)c(O)cc3Br)o2)cc1O [SA-55]
CD (TauRD): −
ThioS (IC50, μM) [4]: no inhibition

SMILES: Oc1ccc(-c2cc(Br)c(-c3ccc(O)c(O)c3)s2)cc1O [SA-59]
Efficacy % Inhibition [1]: 67%
inhibition at 1 µM [1]: 69%
inhibition at 2 µM [1]: 76%
inhibition at 5 µM [1]: 56%
IC50 ([6]; Homo sapiens): 3.1 µM
Emax [6, 10]: 63%

SMILES: COc1ccc(-c2cc(-c3ccc(OC)c(OC)c3)c(-c3ccc(OC)c(OC)c3)s2)cc1OC [SA-60, 2,3,5-tri(3′,4′-dimethoxyphenyl)thiophene]
inhibition of rotenone-induced cell death (in words) [6]: significant, dose-dependent inhibition
IC50 ([6]; Homo sapiens): 12.5 µM
Emax [6, 10]: 33%
ThioS (IC50, μM) [4, 11]: no inhibition

SMILES: Oc1ccc(-c2cnc(-c3ccc(O)c(O)c3)o2)cc1O [SA-70]
IC50 ([6]; Homo sapiens): 5.6 µM
Emax [6, 10]: 78%
Emax (α-synuclein fibrils [2]): 100%
Emax (α-synuclein fibrils [3]): 88%
Emax (α-synuclein; 24 h): 92%

SMILES: Oc1ccc(-c2cnco2)cc1O [SA-73]
Max % Decrease (α-synuclein fibrils [5]; Congo red binding, 2-day incubation): 35%
EC50 (mole ratio) (α-synuclein fibrils [5]; Congo red binding, moles of test compound per mole of α-synuclein, 2 days): 1.1 mole ratio
inhibition of rotenone-induced cell death (in words) ([6]; 500 nM rotenone): significant, dose-dependent inhibition
Max % Inhibition ([6]; inhibition of cell death, 500 nM rotenone): 77%
IC50 ([6]; inhibition of cell death, 500 nM rotenone; read-out: IC50): 35 to 75 µM
Max % Decrease (α-synuclein fibrils [2]; [8]): 100%
EC50 (mole ratio) (α-synuclein fibrils [2]; Thioflavin T fluorescence, moles of test compound per mole of α-synuclein, 6.9 μM pre-formed fibrils, 2 days): 0.52 mole ratio
disruption/disassembly of preformed α-synuclein fibrils (in words) (α-synuclein fibrils [2]; molar ratios 50:1 to 0.01:1): dose-dependent and extensive disruption/disassembly

SMILES: O=C(/C=C/c1ccc(O)c(O)c1)c1ccc(O)c(O)c1 [SA-94]
inhibition at 0.5 µM [1]: 70%
inhibition at 1 µM [1]: 63%
inhibition at 2 µM [1]: 85%
IC50 ([6]; Homo sapiens): 2.3 µM
inhibition at 3.5 µM [6, 13]: 35%
inhibition at 15 µM [6, 13]: 58%
Emax [6, 10]: 58%
Emax (α-synuclein fibrils [2]): 100%
Emax (α-synuclein fibrils [3]): 65%
Emax (α-synuclein; 24 h): 95%

SMILES: O=C(/C=C/c1cc(O)c(O)cc1Br)c1ccc(O)c(O)c1 [SA-95]
inhibition at 0.5 µM [1, 7]: 73%
inhibition at 1 µM ([1]; rotenone 0.5 μM, compound 1 μM): 98%
inhibition at 2 µM ([1]; rotenone 0.5 μM, compound 2 μM): 90%
inhibition at 0.5 µM ([1]; rotenone 2 μM, compound 0.5 μM): 95%
IC50 ([6]; Homo sapiens; read-out: IC50): 3.8 µM
Emax [6, 12]: 63%
Emax (α-synuclein fibrils [2]; [8]): 100%
Emax (α-synuclein fibrils [3]): 64%
Emax (α-synuclein; [9]): 97%

SMILES: O=C(/C=C/c1ccc(O)c(O)c1)c1cc(O)c(O)cc1Br [SA-96]
inhibition at 0.5 µM [1]: 73%
inhibition at 1 µM [1]: 82%
inhibition at 2 µM [1]: 81%
IC50 ([6]; Homo sapiens): 4.3 µM
Emax [6, 10]: 61%
Emax (α-synuclein fibrils [2]): 100%
Emax (α-synuclein fibrils [3]): 72%
Emax (α-synuclein; 24 h): 100%

SMILES: CC(=O)N1N=C(c2ccc(O)c(O)c2)CC1c1ccc(O)c(O)c1 (centres unmarked) [SA-98]
inhibition at 0.5 µM [1]: 74%
inhibition at 1 µM [1]: 76%
IC50 ([6]; Homo sapiens): 48 µM
Emax [6, 10]: 56%
Emax (α-synuclein fibrils [2]): 100%
Emax (α-synuclein fibrils [3]): 44%
Emax (α-synuclein; 24 h): 100%

More lines, main results first:

Emax (α-synuclein fibrils [2]; [8]): 98%
Emax (α-synuclein fibrils [3]): 57%
Emax (α-synuclein; [9]): 100%
SMILES: Oc1ccc(-c2nc3cc(O)c(O)cc3o2)cc1O [SA-54]
inhibition at 0.5 µM [1, 7]: 80%
inhibition at 2 µM ([1]; rotenone 0.5 μM, compound 2 μM): 83%
inhibition at 1 µM ([1]; rotenone 2 μM, compound 1 μM): 56%

% inhibition of Congo red binding (α-synuclein fibrils [5]; test compound:α-synuclein molar ratio of 5:1): 49%
% inhibition of Congo red binding (α-synuclein fibrils [5]; test compound:α-synuclein molar ratio of 50:1): 66%
Emax (α-synuclein fibrils [2]; [8]): 100%
% inhibition of Thioflavin T fluorescence (α-synuclein fibrils [2]; test compound:α-synuclein molar ratio of 1:1): 83%
% inhibition of Thioflavin T fluorescence (α-synuclein fibrils [2]; test compound:α-synuclein molar ratios ≧5:1): 97-100%
Emax (α-synuclein fibrils [3]): 66%
Emax (α-synuclein; [9]): 100%
SMILES: Oc1ccc(-c2nsc(-c3ccc(O)c(O)c3)n2)cc1O [SA-57]

ThioS (IC50, μM) [4, 11]: no inhibition
SMILES: Oc1ccc(-c2ccc(Br)s2)cc1O [SA-62]

CD (TauRD; semi-quantitative CD score, aggregated TauRD): +
IC50 [4, 11]: 10.1 ± 0.56 µM
SMILES: Oc1ccc(-c2ccc(-c3cc(O)c(O)c(O)c3)s2)cc1O [SA-63, 5-(5-(3,4-dihydroxyphenyl)thiophen-2-yl)benzene-1,2,3-triol]

Emax (α-synuclein fibrils [2]; [8]): 100%
Emax (α-synuclein fibrils [3]): 85%
Emax (α-synuclein; [9]): 100%
IC50 [4, 11]: 17.6 µM
SMILES: Oc1ccc(-c2cnc(-c3ccc(O)c(O)c3)s2)cc1O [SA-64]
IC50 ([6]; Homo sapiens; read-out: IC50): 2.6 µM
Emax [6, 12]: 100%

Emax (α-synuclein fibrils [2]; [8]): 76%
Emax (α-synuclein fibrils [3]): 25%
Emax (α-synuclein; [9]): 100%
SMILES: Oc1ccc(-c2nnc(-c3ccc(O)c(O)c3)o2)cc1O [SA-67]
inhibition at 0.5 µM [1, 7]: 75%
inhibition at 1 µM ([1]; rotenone 0.5 μM, compound 1 μM): 48%
inhibition at 2 µM ([1]; rotenone 0.5 μM, compound 2 μM): 92%
IC50 ([6]; Homo sapiens; read-out: IC50): 8.5 µM
Emax [6, 12]: 44%

Emax (α-synuclein fibrils [2]): 100%
Emax (α-synuclein; 24 h): 100%
SMILES: Oc1ccc(-c2cn(-c3ccc(O)c(O)c3)nn2)cc1O [SA-68]
inhibition at 1 µM ([1]; rotenone 0.5 μM, compound 1 μM): 69%
inhibition at 5 µM ([1]; rotenone 0.5 μM, compound 5 μM): 73%
inhibition at 5 µM ([1]; rotenone 2 μM, compound 5 μM): 44%
IC50 ([6]; Homo sapiens; read-out: IC50): 24 µM
Emax [6, 12]: 61%

Emax (α-synuclein fibrils [2]; [8]): 100%
Emax (α-synuclein fibrils [3]): 62%
Emax (α-synuclein; [9]): 91%
SMILES: Oc1ccc(Cc2cc(O)c(O)cc2I)cc1O [SA-93]
inhibition at 2 µM ([1]; rotenone 2 μM, compound 2 μM): 45%
IC50 ([6]; Homo sapiens; read-out: IC50): 19.8 µM
Emax [6, 12]: 100%

Emax (α-synuclein fibrils [2]; [8]): 99%
Emax (α-synuclein fibrils [3]): 40%
Emax (α-synuclein; [9]): 100%
SMILES: Oc1ccc(Cc2cc(O)c(O)cc2O)cc1O [SA-97]
IC50 ([6]; Homo sapiens; read-out: IC50): 39 µM
Emax [6, 12]: 42%

Emax (α-synuclein fibrils [2]; [8]): 100%
Emax (α-synuclein fibrils [3]): 54%
Emax (α-synuclein; [9]): 98%
SMILES: O=[N+]([O-])c1cc(-c2ccc(O)c(O)c2)ccc1-c1ccc(O)c(O)c1 [SA-99]
